Results: patent US20130209515A1, “ANTI-INFECTIVE AND IMMUNOMODULATORY COMPOUNDS” (priority 2005, published 2013)

System: mouse genes
Assay: Whole genome expression in blood of mice after 2AA (Affymetrix GeneChip)
Assay type: in vivo
Settings: for Fold Change X14607 Lipocalin 2 / Fold Change AF220015 Rpt-1; regulatory protein, T lymphocyte 1 / Fold Change AF237910 Membrane-spanning 4-domains, subfamily A / Fold Change AI323359 Csfmr, colony stimulating factor IR, regulator of myeloid cell proliferation / Fold Change AI462015 Nuclear factor of kappa light chain gene enhancer in B-cells inhibitor, alpha / Fold Change AI648846 Solute carrier family 6 / Fold Change AV026617 FBJ osteosarcoma oncogene / Fold Change AV229143 Interferon activated gene (202A) / Fold Change AV318494 Myeloid cell leukemia sequence 1 / Fold Change BB193024 Interferon-induced transmembrane protein-2 / Fold Change BB241535 Suppressor of cytokine signaling 3 / Fold Change BB769628 Colony stimulating factor 2 receptor, beta 1 / Fold Change BB784999 Triggering receptor expressed on myeloid cells 1 / Fold Change BB831725 Suppressor of cytokine signaling 3 / Fold Change BC003839 Myeloid cell leukemia sequence 1 (Mcl1) / Fold Change BC010291 Interferon-inducible protein (Cd225) / Fold Change BC011092 Chemokine (C-C) receptor 1 / Fold Change BC011437 IL-1β / Fold Change BC012653 Chemokine (C-X3-C) receptor 1 / Fold Change BC021916 EMAPI, cytokine activity / Fold Change BC022943 Lymphocyte cytosolic protein 1 / Fold Change BE285634 Interleukin-1 receptor accessory protein / Fold Change NM_008039 Receptor activity [formyl peptide receptor, related sequence 2] (Fpr-rs2) / Fold Change NM_008677 p40phox; intracellular signaling cascade neutrophil cytosolic factor 4 (Ncf4) / Fold Change NM_008879 Pls2, L-fimbrin, calcium ion binding lymphocyte cytosolic proteing 1 (Lep 1) / Fold Change NM_009883 Nuclear factor induced by IL-6 (NF-IL6) / Fold Change NM_011087 Paired-Ig-like receptor A1 (Piral) / Fold Change NM_011313 Cacy; calcium binding protein A6 (calcyclin)cyclin-dependent protein kinase / Fold Change NM_011315 Saa-3 lipid transported activity acute phase response / Fold Change NM_011355 PU.1, transcription factor complex cell growth and/or maintenance / Fold Change NM_011940 Interferon-activatable protein (Ifi202) / Fold Change NM_011999 DCIR; C-type (calcium dependent, carbohydrate recognition domain) lectin / Fold Change NM_030691 Integral to membrane immunoglobulin superfamily, member 6 (Igsf6) / Fold Change NM_030694 Interferon-induced transmembrane protein-3 / Fold Change U05264 Glycoprotein 49B (Gp49b) / Fold Change U72644 Leukocyte specific transcript 1: blood
Protocol: To identify how 2AA pre-exposure promotes host defense to better protect against P. aeruginosa infection, we carried out whole genome gene expression studies of mice for several experimental conditions using the mouse full-thickness skin thermal injury infection model, including naïve; BI alone; 2AA treatment alone; 2AA pretreatment plus BI. The mice were injected IP, as we were not yet aware of the improved benefit obtained with IV delivery. Whole blood was collected after 0, 6, 24, 96 and 192 hr post 2AA injection. Also, pretreated BI mice were exposed to 2AA at 1 and 4 days pre-BI, with blood samples collected 24 hr post-BI. The transcriptome profiles were then determined and compared, and genes with statistically significant differences in their expression levels between the samples were further analyzed by pair-wise comparison (see experimental design, section 2.2).
In experiments to determine if T-aminoacetophenone acts as an immunomodulator, eight 6-week old CD-1 male mice were treated intraperitonialy with 500 μl of a 20 mM solution of T-aminoacetophenone in 0.9% NaCl (aq). A control group of mice was administered only 0.9% NaCl. Blood was withdrawn from the mice at time points of 6 hours, 24 hours, 96 hours, and 192 hours, and RNA was extracted from each blood sample.
Mouse GeneChip™ arrays, manufactured by Affymetrix (Santa Clara, Calif.), were used to compare the profile of gene expression in the blood samples of mice. The biotin-labeled cRNA used to hybridize to the GeneChips was prepared from the RNA extracted from the blood samples according to the Affymetrix GeneChip Expression Analysis Technical Manual (Research Genetics, Huntsville, Ala.).
The expression profiles from treated and untreated mice were compared and an additional constraint of a minimum expression ratio of 1 was applied to control false positives to 5%. The gene list was clustered and the genes showing upregulation at any of the time points considered were selected. […] Most of the genes listed in the table function in immune response or host-pathogen interaction. The table includes several cytokines and their receptors, genes involved in immune cell proliferation, and calcium-binding proteins that have a role in downstream signaling.

CC(=O)c1ccccc1N [2AA, 2′-aminoacetophenone]
Fold Change X14607 Lipocalin 2 (24 h after IP 2AA): 0.2 fold
Fold Change AF220015 Rpt-1; regulatory protein, T lymphocyte 1 (96 h after IP 2AA): 0.5 fold
Fold Change AF237910 Membrane-spanning 4-domains, subfamily A (96 h after IP 2AA): 0.0 fold
Fold Change AI323359 Csfmr, colony stimulating factor IR, regulator of myeloid cell proliferation (96 h after IP 2AA): 0.0 fold
Fold Change AI462015 Nuclear factor of kappa light chain gene enhancer in B-cells inhibitor, alpha (96 h after IP 2AA): 0.4 fold
Fold Change AI648846 Solute carrier family 6 (96 h after IP 2AA): 3.7 fold
Fold Change AV026617 FBJ osteosarcoma oncogene (96 h after IP 2AA): 0.0 fold
Fold Change AV229143 Interferon activated gene (202A) (96 h after IP 2AA): 6.8 fold
Fold Change AV318494 Myeloid cell leukemia sequence 1 (96 h after IP 2AA): 0.3 fold
Fold Change BB193024 Interferon-induced transmembrane protein-2 (96 h after IP 2AA): 0.1 fold
Fold Change BB241535 Suppressor of cytokine signaling 3 (96 h after IP 2AA): 0.3 fold
Fold Change BB769628 Colony stimulating factor 2 receptor, beta 1 (96 h after IP 2AA): 3.2 fold
Fold Change BB784999 Triggering receptor expressed on myeloid cells 1 (96 h after IP 2AA): 4.6 fold
Fold Change BB831725 Suppressor of cytokine signaling 3 (96 h after IP 2AA): 2.0 fold
Fold Change BC003839 Myeloid cell leukemia sequence 1 (Mcl1) (96 h after IP 2AA): −0.4 fold
Fold Change BC010291 Interferon-inducible protein (Cd225) (96 h after IP 2AA): −0.3 fold
Fold Change BC011092 Chemokine (C-C) receptor 1 (96 h after IP 2AA): −0.7 fold
Fold Change BC011437 IL-1β (96 h after IP 2AA): 0.2 fold
Fold Change BC012653 Chemokine (C-X3-C) receptor 1 (96 h after IP 2AA): 0.0 fold
Fold Change BC021916 EMAPI, cytokine activity (96 h after IP 2AA): −0.3 fold
Fold Change BC022943 Lymphocyte cytosolic protein 1 (96 h after IP 2AA): −0.4 fold
Fold Change BE285634 Interleukin-1 receptor accessory protein (96 h after IP 2AA): −1.1 fold
Fold Change NM_008039 Receptor activity [formyl peptide receptor, related sequence 2] (Fpr-rs2) (96 h after IP 2AA): 0.2 fold
Fold Change NM_008677 p40phox; intracellular signaling cascade neutrophil cytosolic factor 4 (Ncf4) (96 h after IP 2AA): 0.0 fold
Fold Change NM_008879 Pls2, L-fimbrin, calcium ion binding lymphocyte cytosolic proteing 1 (Lep 1) (96 h after IP 2AA): 0.0 fold
Fold Change NM_009883 Nuclear factor induced by IL-6 (NF-IL6) (96 h after IP 2AA): −0.1 fold
Fold Change NM_011087 Paired-Ig-like receptor A1 (Piral) (96 h after IP 2AA): 0.2 fold
Fold Change NM_011313 Cacy; calcium binding protein A6 (calcyclin)cyclin-dependent protein kinase (96 h after IP 2AA): 0.5 fold
Fold Change NM_011315 Saa-3 lipid transported activity acute phase response (96 h after IP 2AA): 1.5 fold
Fold Change NM_011355 PU.1, transcription factor complex cell growth and/or maintenance (96 h after IP 2AA): 9.2 fold
Fold Change NM_011940 Interferon-activatable protein (Ifi202) (96 h after IP 2AA): 9.4 fold
Fold Change NM_011999 DCIR; C-type (calcium dependent, carbohydrate recognition domain) lectin (96 h after IP 2AA): 5.3 fold
Fold Change NM_030691 Integral to membrane immunoglobulin superfamily, member 6 (Igsf6) (96 h after IP 2AA): 0.0 fold
Fold Change NM_030694 Interferon-induced transmembrane protein-3 (96 h after IP 2AA): 0.2 fold
Fold Change U05264 Glycoprotein 49B (Gp49b) (96 h after IP 2AA): 0.6 fold
Fold Change U72644 Leukocyte specific transcript 1 (96 h after IP 2AA): −0.2 fold
Fold Change X14607 Lipocalin 2 (96 h after IP 2AA): 0.2 fold
Fold Change AF220015 Rpt-1; regulatory protein, T lymphocyte 1 (192 h after IP 2AA): 0.6 fold
Fold Change AF237910 Membrane-spanning 4-domains, subfamily A (192 h after IP 2AA): 0.5 fold
Fold Change AI323359 Csfmr, colony stimulating factor IR, regulator of myeloid cell proliferation (192 h after IP 2AA): 0.3 fold
Fold Change AI462015 Nuclear factor of kappa light chain gene enhancer in B-cells inhibitor, alpha (192 h after IP 2AA): 0.7 fold
Fold Change AI648846 Solute carrier family 6 (192 h after IP 2AA): 7.8 fold
Fold Change AV026617 FBJ osteosarcoma oncogene (192 h after IP 2AA): 10.5 fold
Fold Change AV229143 Interferon activated gene (202A) (192 h after IP 2AA): 6.2 fold
Fold Change AV318494 Myeloid cell leukemia sequence 1 (192 h after IP 2AA): 1.2 fold
Fold Change BB193024 Interferon-induced transmembrane protein-2 (192 h after IP 2AA): 0.3 fold
Fold Change BB241535 Suppressor of cytokine signaling 3 (192 h after IP 2AA): 1.0 fold
Fold Change BB769628 Colony stimulating factor 2 receptor, beta 1 (192 h after IP 2AA): 5.2 fold
Fold Change BB784999 Triggering receptor expressed on myeloid cells 1 (192 h after IP 2AA): 0.0 fold
Fold Change BB831725 Suppressor of cytokine signaling 3 (192 h after IP 2AA): 5.9 fold
Fold Change BC003839 Myeloid cell leukemia sequence 1 (Mcl1) (192 h after IP 2AA): 0.1 fold
Fold Change BC010291 Interferon-inducible protein (Cd225) (192 h after IP 2AA): −0.3 fold
Fold Change BC011092 Chemokine (C-C) receptor 1 (192 h after IP 2AA): −0.3 fold
Fold Change BC011437 IL-1β (192 h after IP 2AA): 0.6 fold
Fold Change BC012653 Chemokine (C-X3-C) receptor 1 (192 h after IP 2AA): 0.0 fold
Fold Change BC021916 EMAPI, cytokine activity (192 h after IP 2AA): −0.2 fold
Fold Change BC022943 Lymphocyte cytosolic protein 1 (192 h after IP 2AA): −0.1 fold
Fold Change BE285634 Interleukin-1 receptor accessory protein (192 h after IP 2AA): −0.2 fold
Fold Change NM_008039 Receptor activity [formyl peptide receptor, related sequence 2] (Fpr-rs2) (192 h after IP 2AA): 0.2 fold
Fold Change NM_008677 p40phox; intracellular signaling cascade neutrophil cytosolic factor 4 (Ncf4) (192 h after IP 2AA): 0.1 fold
Fold Change NM_008879 Pls2, L-fimbrin, calcium ion binding lymphocyte cytosolic proteing 1 (Lep 1) (192 h after IP 2AA): 0.0 fold
Fold Change NM_009883 Nuclear factor induced by IL-6 (NF-IL6) (192 h after IP 2AA): −0.1 fold
Fold Change NM_011087 Paired-Ig-like receptor A1 (Piral) (192 h after IP 2AA): 0.1 fold
Fold Change NM_011313 Cacy; calcium binding protein A6 (calcyclin)cyclin-dependent protein kinase (192 h after IP 2AA): 1.4 fold
Fold Change NM_011315 Saa-3 lipid transported activity acute phase response (192 h after IP 2AA): −0.2 fold
Fold Change NM_011355 PU.1, transcription factor complex cell growth and/or maintenance (192 h after IP 2AA): 6.0 fold
Fold Change NM_011940 Interferon-activatable protein (Ifi202) (192 h after IP 2AA): 9.1 fold
Fold Change NM_011999 DCIR; C-type (calcium dependent, carbohydrate recognition domain) lectin (192 h after IP 2AA): 9.6 fold
Fold Change NM_030691 Integral to membrane immunoglobulin superfamily, member 6 (Igsf6) (192 h after IP 2AA): 5.6 fold
Fold Change NM_030694 Interferon-induced transmembrane protein-3 (192 h after IP 2AA): 0.6 fold
Fold Change U05264 Glycoprotein 49B (Gp49b) (192 h after IP 2AA): 0.9 fold
Fold Change U72644 Leukocyte specific transcript 1 (192 h after IP 2AA): 0.1 fold
Fold Change X14607 Lipocalin 2 (192 h after IP 2AA): 0.2 fold
genes with >2× expression differences at least at one point vs control mice (IP 2AA, blood 0, 6, 24, 96, 192 hr): 835 genes
genes involved in the P38 MAPK pathway induced (post-2AA treatment): 7/8
